Source: ChEMBL document CHEMBL3727364, “Resorcinol n-aryl amide compounds, for use as pyruvate dehydrogenase kinase inhibitors” (2015)

Biological target: [Pyruvate dehydrogenase (acetyl-transferring)] kinase isozyme 1, mitochondrial (Homo sapiens, UniProt Q15118)
Assay: Binding affinity to pyruvate dehydrogenase kinase 1 (unknown origin) incubated for 90 mins by VER-00160364 probe based fluorescence polarization assay

[Pyruvate dehydrogenase (acetyl-transferring)] kinase isozyme 1, mitochondrial, sequence (Q15118 whole entry): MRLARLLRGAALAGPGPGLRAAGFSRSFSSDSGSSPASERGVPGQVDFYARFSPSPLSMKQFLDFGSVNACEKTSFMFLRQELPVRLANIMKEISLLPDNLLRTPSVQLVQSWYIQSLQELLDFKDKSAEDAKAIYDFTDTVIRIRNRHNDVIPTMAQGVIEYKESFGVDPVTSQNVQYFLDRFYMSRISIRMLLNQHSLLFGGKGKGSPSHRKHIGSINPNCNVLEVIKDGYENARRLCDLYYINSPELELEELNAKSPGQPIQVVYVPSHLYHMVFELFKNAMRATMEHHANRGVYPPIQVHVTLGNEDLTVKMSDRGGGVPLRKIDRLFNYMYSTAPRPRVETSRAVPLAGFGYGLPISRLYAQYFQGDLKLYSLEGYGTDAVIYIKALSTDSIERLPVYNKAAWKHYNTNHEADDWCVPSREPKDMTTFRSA

Compound	IC50
N#Cc1cc(Cl)nc(-c2ccc(N(Cc3cccnc3)C(=O)c3ccc(O)cc3O)cc2)c1	100 nM
COc1ccc(CN(C)C(=O)c2ccc(N(Cc3ccccc3)C(=O)c3cc(Cl)c(O)cc3O)cc2)cc1	100 nM
COc1cnc(Cl)nc1-c1ccc(N(Cc2ccsc2)C(=O)c2ccc(O)cc2O)cc1	100 nM
O=C(c1ccc(O)cc1O)N(Cc1cccnc1)c1ccc(-c2nc(C(F)(F)F)nc3ccccc23)cc1	100 nM
CN(C)C(=O)c1ccc(N(CC2CCNCC2)C(=O)c2cc(Cl)c(O)cc2O)cc1	100 nM
O=C(c1ccc(O)cc1O)N(Cc1ccccc1)c1ccc(-c2nc(Cl)nc3[nH]ccc23)cc1	1000 nM
Cc1c(-c2ccc(N(Cc3ccccc3)C(=O)c3ccc(O)cc3O)cc2)ccc2[nH]ncc12	1000 nM
CN(C)C(=O)c1ccc(N(Cc2ccc(C(F)(F)F)cc2)C(=O)c2cc(Cl)c(O)cc2O)cc1	100 nM
CN(Cc1cccc2ccccc12)C(=O)c1ccc(N(Cc2ccsc2)C(=O)c2ccc(O)cc2O)cc1	1000 nM
COc1ccc2nc(-c3ccc(N(Cc4ccccc4)C(=O)c4ccc(O)cc4O)cc3)c(C)cc2c1	100 nM
COc1cnc(-c2ccc(N(Cc3cccnc3)C(=O)c3ccc(O)cc3O)cc2)cc1OC	100 nM
CN(Cc1cccc2cnccc12)C(=O)c1ccc(N(Cc2cccnc2)C(=O)c2ccc(O)cc2O)cc1	100 nM
O=C(c1ccc(O)cc1O)N(Cc1cccnc1)c1ccc(-c2ncnc3cccc(F)c23)cc1	10 nM
Cc1nc(C(F)(F)F)nc(-c2ccc(N(Cc3cccnc3)C(=O)c3ccc(O)cc3O)cc2)c1C	10 nM
Cc1cc(S(=O)(=O)NCCN(C)C)cnc1-c1ccc(N(Cc2ccsc2)C(=O)c2ccc(O)cc2O)cc1	10 nM
CN(C)C(=O)c1ccc(N(Cc2ccsc2)C(=O)c2ccc(O)cc2O)cc1	10 nM
CN(Cc1ccnc2ccccc12)C(=O)c1ccc(N(Cc2ccsc2)C(=O)c2ccc(O)cc2O)cc1	100 nM
CCc1cnc(C)nc1-c1ccc(N(Cc2cccnc2)C(=O)c2ccc(O)cc2O)cc1	10 nM
Cc1cnc(Cl)nc1-c1ccc(N(C(=O)c2ccc(O)cc2O)C(C)c2ccccc2)cc1 (stereo unspecified)	1000 nM
O=C(c1ccc(O)cc1O)N(Cc1cccnc1)c1ccc(-c2nccc3occc23)cc1	1000 nM
Cc1cc(-c2ccc(N(Cc3cccnc3)C(=O)c3ccc(O)cc3O)cc2)cnc1Cl	1000 nM
COc1ccc2nc(-c3ccc(N(Cc4ccsc4)C(=O)c4ccc(O)cc4O)cc3)c(C)cc2c1	100 nM

Compound	IC50
Cc1cnc(Cl)nc1-c1ccc(N(Cc2ccsc2)C(=O)c2cc(Cl)c(O)cc2O)cc1	10 nM
Cc1cnc(-c2cccc(F)c2)nc1-c1ccc(N(Cc2ccccc2)C(=O)c2ccc(O)cc2O)cc1	1000 nM
Cc1nc(-c2ccc(N(Cc3cccnc3)C(=O)c3ccc(O)cc3O)cc2)c2ccccc2n1	100 nM
Cc1cc(S(=O)(=O)N2CCC(F)(F)CC2)cnc1-c1ccc(N(Cc2ccsc2)C(=O)c2ccc(O)cc2O)cc1	1000 nM
Cc1cc2ccccc2nc1-c1ccc(N(Cc2ccc(F)c(F)c2)C(=O)c2ccc(O)cc2O)cc1	100 nM
CCNC(=O)Nc1ccc(N(Cc2ccccc2)C(=O)c2ccc(O)cc2O)cc1	1000 nM
Cc1nc(C(F)(F)F)nc(-c2ccc(N(Cc3ccsc3)C(=O)c3ccc(O)cc3O)cc2)c1C	100 nM
COc1cnc(Cl)nc1-c1ccc(N(Cc2ccccc2)C(=O)c2ccc(O)cc2O)cc1	100 nM
O=C(c1ccc(O)cc1O)N(Cc1ccsc1)c1ccc(-c2nc(C(F)(F)F)ccc2C(F)(F)F)cc1	1000 nM
Cc1cnc(Cl)nc1-c1ccc(N(C(=O)c2ccc(O)cc2O)[C@H](C)c2ccccc2)cc1	100 nM
Cc1cc(N)cnc1-c1ccc(N(Cc2ccccc2)C(=O)c2ccc(O)cc2O)cc1	100 nM
COc1ccc2nc(-c3ccc(N(Cc4cccnc4)C(=O)c4ccc(O)cc4O)cc3)c(C)cc2c1	100 nM
O=C(c1ccc(O)cc1O)N(Cc1ccccc1)c1ccc(-c2nc(Cl)nc3ccsc23)cc1	10000 nM
CC(=O)Nc1ccc(N(Cc2ccccc2)C(=O)c2ccc(O)cc2O)cc1	1000 nM
COc1cnc(Cl)nc1-c1ccc(N(Cc2ccccc2)C(=O)c2cc(C)c(O)cc2O)cc1	1000 nM
Cc1ccc(-c2ccc(N(Cc3cccnc3)C(=O)c3ccc(O)cc3O)cc2)c(Cl)c1	1000 nM
CN(C)C(=O)c1ccc(N(Cc2ccncc2)C(=O)c2cc(Cl)c(O)cc2O)cc1	1000 nM
O=C(c1ccc(O)cc1O)N(Cc1cccnc1)c1ccc(-c2nc(-c3ccccc3)nc3ccccc23)cc1	1000 nM
O=C(c1ccc(O)cc1O)N(Cc1cccnc1)c1ccc(-c2ccncc2C(F)(F)F)cc1	100 nM
O=C(c1ccc(O)cc1O)N(Cc1cccnc1)c1ccc(-c2cc3cncnc3[nH]2)cc1	1000 nM
O=C(c1ccc(O)cc1O)N(Cc1ccsc1)c1ccc(-c2nc3ccccc3cc2CO)cc1	100 nM
CN(Cc1cccs1)C(=O)c1ccc(N(Cc2ccsc2)C(=O)c2ccc(O)cc2O)cc1	100 nM

Compound	IC50
Cc1cc2ccc(F)cc2nc1-c1ccc(N(Cc2ccsc2)C(=O)c2ccc(O)cc2O)cc1	100 nM
CC(=O)Nc1ccc(-c2ccc(N(Cc3cccnc3)C(=O)c3ccc(O)cc3O)cc2)c(C)c1	100 nM
CSc1nc(-c2ccc(N(Cc3cccnc3)C(=O)c3ccc(O)cc3O)cc2)c2cc[nH]c2n1	100 nM
CN(C)C(=O)c1ccc(N(Cc2c[nH]cn2)C(=O)c2cc(Cl)c(O)cc2O)cc1	1000 nM
O=C(c1ccc(O)cc1O)N(Cc1cccnc1)c1ccc(-c2ccc(N3CCCC3)nn2)cc1	100 nM
O=C(c1ccc(O)cc1O)N(Cc1ccccc1)c1ccc(-c2ncnc3ccsc23)cc1	10000 nM
Cc1cc2ccccc2nc1-c1ccc(N(Cc2ccc(CN3CCCC3)cc2)C(=O)c2ccc(O)cc2O)cc1	100 nM
O=C(c1ccc(O)cc1O)N(Cc1ccccc1)c1ccc(-c2nc(-c3ccsc3)nc3ccccc23)cc1	100 nM
O=C(c1ccc(O)cc1O)N(Cc1cccnc1)c1ccc(-c2ccc(N3CCOCC3)nn2)cc1	1000 nM
Cc1ccnnc1-c1ccc(N(Cc2cccnc2)C(=O)c2ccc(O)cc2O)cc1	100 nM
Cn1ccnc1-c1ccc(N(Cc2ccccc2)C(=O)c2ccc(O)cc2O)cc1	1000 nM
Cc1csc2ncnc(-c3ccc(N(Cc4cccnc4)C(=O)c4ccc(O)cc4O)cc3)c12	100 nM
O=C(c1ccc(O)cc1O)N(Cc1cccnc1)c1ccc(-c2nc3cc(Cl)ccc3o2)cc1	1000 nM
Cc1cc(S(=O)(=O)NCc2cccnc2)cnc1-c1ccc(N(Cc2cccnc2)C(=O)c2ccc(O)cc2O)cc1	10 nM
Cc1cc(Cl)nnc1-c1ccc(N(Cc2cccnc2)C(=O)c2ccc(O)cc2O)cc1	10 nM
Cc1nccnc1-c1ccc(N(Cc2cccnc2)C(=O)c2ccc(O)cc2O)cc1	100 nM
CCc1nccnc1-c1ccc(N(Cc2ccccc2)C(=O)c2ccc(O)cc2O)cc1	100 nM
Cc1cc(S(=O)(=O)NCCN(C)C)cnc1-c1ccc(N(Cc2ccccc2)C(=O)c2ccc(O)cc2O)cc1	100 nM
O=C(c1ccc(N(Cc2ccccc2)C(=O)c2ccc(O)cc2O)cc1)N1CCC(O)CC1	100 nM
Cc1nc(-c2ccc(N(Cc3ccccc3)C(=O)c3ccc(O)cc3O)cc2)c2ccccc2n1	1000 nM
Cc1nccn1-c1ccc(-c2ccc(N(Cc3cccnc3)C(=O)c3ccc(O)cc3O)cc2)nn1	100 nM
O=C(c1ccc(O)cc1O)N(Cc1cccnc1)c1ccc(-c2nc(C(F)(F)F)ccc2C(F)(F)F)cc1	10 nM
